Publication PMC10510102, “Efficient Ligand Discovery Using Sulfur(VI) Fluoride Reactive Fragments” (ACS Chemical Biology, 2023)

Key:
[1] = target: T1, CAII (Homo sapiens, UniProt P00918); assay: Kinetic analyses of covalent modification, intact protein LC-MS; type: binding; set-up: purchased Sigma Aldrich C6624-500UG; host or cells: E. coli; details: 0.5 μM CAII; 5-100 μM SF; 0-24 h; 20 °C
Description: The kinetics of binding were investigated by incubation of the resynthesized and purified SFs 2b–e with CAII at a range of concentrations and analysis by intact protein LC–MS over a 24 h period (see Figure S9). The concentration–response was analyzed based on a two-step model of reversible ligand (L) binding and subsequent irreversible covalent modification of the protein (P) (P + L ⇌ P·L → PL) (see Figure S10).[24] Time courses were fit to a single exponential function to give a kobs for each concentration (Figure 3d). These were then fitted using a Michaelis–Menten model to determine kinact (corresponding to the rate of covalent-bond formation) and KI (corresponding to the recognition of the ligand for the protein pocket) (Figure 3e,f). […]. This is consistent with the strong binding of aryl sulfonamides to the CAII Zn^2+ binding pocket.[33] […] The slow rate of the reaction may be attributed to a suboptimal trajectory of the SF group toward the His64 residue in the reversible bound conformation and/or low nucleophilicity of the residue.[14]
The (resynthesized and purified) SF hits (2b–e, 10 mM) were plated into seven 384-well plates with DMSO to make up identical plates with final concentrations of 100, 50, 20, 10, or 5 μM after adding 15 μL of protein stock solution per well. The percentage of DMSO was kept constant. Purified CAII was subsequently added across all plates. Final concentrations were 0.5 μM protein; 100, 50, 20, 10, or 5 μM SF. The plates were sealed and centrifuged, and the first six plates were immediately queued for analysis by intact protein LC–MS at a temperature of 20 °C with the final plate paused for a 24 h timepoint.
5. CAII – kinetic analyzes
5.1. Protocol for kinetic analyzes (CAII)
The (resynthesized and purified) SF hits (2b–e) were plated into seven Greiner 384 white low volume plate from a 10 mM source in DMSO. Differing volumes were added such that the final concentrations for each compound would be: 100, 50, 20, 10, or 5 µM after adding 15 µL of protein stock solution per well. Volumes of DMSO were made to be consistent for every well. Purified CAII diluted from original stock into a buffer made up of HEPES (pH 7.5, 25 mM) and NaCl (50 mM) in distilled MS-grade water (15 µL per well) was subsequently added across the plates. Final concentrations: 0.5 µM protein; 100, 50, 20, 10, or 5 µM SF. The plates were sealed, centrifuged (1 min, 1000 rpm), and the first six plates were immediately queued for analysis by intact protein LC-MS at a temperature of 20 °C with the final plate paused for a 24 h timepoint. The resulting modification yields were plotted in GraphPad Prism (Version 5.0.4) software against the time of sampling.11 Non-linear regression analyzes were conducted using a ‘one-phase association’ model, with the y=0 value constrained to ‘0’ and plateau value constrained to ‘100’. The observed rate constants (kobs, value ‘K’ in GraphPad) were extracted for each compound at each concentration, then replotted against the corresponding compound concentration. Further non-linear regression analyzes were conducted using a ‘Michaelis-Menten’ model, from which kinact values (‘Vmax’ in GraphPad) and KI values (‘Km’) were extracted. […]
To a Labcyte 384LDV plate containing 96 amine functionalized fragments (10 mM) in DMSO (5 µL per well) was added a stock solution of OSu 2a (10 mM) and NEM (30 mM) in DMSO (5 µL per well). The plate was sealed, centrifuged (1 min, 1000 rpm), and allowed to sit at room temperature for 1 h. After the reaction (assumed product concentration: 5 mM), a Labcyte ECHO© 555 Liquid Handler was used to transfer the library of SFs to a Greiner 384 white low volume plate. […]

[2] = target: T1, CAII; assay: Identification of site of covalent modification by tandem MS; set-up: purchased Sigma Aldrich C6624-500UG; host or cells: E. coli; details: for major site of covalent modification: 2 μM CAII, 50 μM SF, 24 h, 20 °C, trypsin digest LC-MS/MS; for minor site of covalent modification: N-terminal peptide 1MSHHWGYGK9
Text: Tandem MS analyses were subsequently employed for identification of the amino acid residue(s) that was covalently modified. Samples of CAII modified by the resynthesized and purified SFs 2d and 2e were digested using trypsin and analyzed by LC–MS/MS. This identified peptides 59ILNNGH*AFNVEFDDSQDKAVLK80 and 59ILNNGH*AFNVEFDDSQDK76 as the major site(s) of modification on His64 for both 2d (366 Da) (see Figure S6) and 2e (380 Da) (Figure 3b), respectively. Further to this, minor modifications were observed on the N-terminal peptide 1MSHHWGYGK9 at His3 (2d and 2e) and Tyr7 (2d only).
The (resynthesized and purified) SF hits (2d and 2e, 10 mM) were plated into a 384-well plate. Purified CAII was subsequently added across the plate. Final concentrations: 2 μM protein; 50 μM SF. The plate was sealed, centrifuged, and incubated at 20 °C for 24 h, and 15 μL aliquots were subsequently removed and analyzed by intact protein LC–MS. The remaining samples (1 μg) were separated by sodium dodecyl sulfate-polyacrylamide gel electrophoresis to remove excess unbound compounds. Gels were stained with colloidal Comassie InstantBlue, and bands corresponding to CAII were excised, reduced with TCEP (10 mM, 65 °C, 30 min), and alkylated with iodoacetamide (10 mM, rt, 30 min, dark). Samples were digested with trypsin (1:10 E/S, 37 °C, 16 h) in ammonium bicarbonate (100 mM). After removal of the supernatant, peptides were extracted using acetonitrile. Combined supernatants were centrifuged and acidified prior to injection into the LC–MS/MS system. Tandem MS spectra were searched for peptide matches against the sequence for CAII. Raw files were searched using trypsin as the enzyme. Masses corresponding to [SF – HF] were allowed as variable modification(s) on cysteine, histidine, lysine, tyrosine, serine, and threonine as well as the protein N-terminus. MS/MS spectra were manually validated and annotated. […]
4.2. Identification of the site of covalent modification by tandem MS (CAII)
The (resynthesized and purified) SF hits (2d and 2e) were plated into a Greiner 384 PP F-bottom plate from a 10 mM source in DMSO.
Purified CAII diluted from original stock into a buffer made up of HEPES (pH 7.5, 25 mM) and NaCl (50 mM) in distilled MS-grade water (50 µL per well) was subsequently added across the plate. Final concentrations: 2 µM protein; 50 µM SF. The plate was sealed, centrifuged (1 min, 1000 rpm), incubated at 20 °C for 24 h, and 15 µL aliquots were subsequently removed and analyzed by intact protein LC-MS. The remaining samples (1 μg) were separated by SDS-PAGE to remove excess unbound compound. Gels were stained with colloidal Comassie InstantBlue and bands corresponding to CAII were excised, reduced with 10 mM TCEP (65 °C, 30 mins), and alkylated with 10 mM iodoacetamide (r.t., 30 mins, dark). […]

Compound | KI (inactivation) [1] [µM] | kinact [1] [s⁻¹] | kinact/KI [1] [M⁻¹ s⁻¹] | Ki [1] [µM] | major site of covalent modification [2] | minor site of covalent modification [2]
CC(NC(=O)Cc1ccc(S(=O)(=O)F)cc1)c1cccc(S(N)(=O)=O)c1 (stereo not shown) [2b] | 8.9 | 3.2e-05 | 3.6 |  |  | 
NS(=O)(=O)Cc1cccc(CNC(=O)Cc2ccc(S(=O)(=O)F)cc2)c1 [2c] | 16 | 3.3e-05 | 2 |  |  | 
NS(=O)(=O)c1cccc(CNC(=O)Cc2ccc(S(=O)(=O)F)cc2)c1 [2d] |  | 3e-05 | > 6.1 | < 5 | His64 | His3 and Tyr7
NS(=O)(=O)c1ccc(CCNC(=O)Cc2ccc(S(=O)(=O)F)cc2)cc1 [2e] |  | 1.8e-05 | > 3.6 | < 5 | His64 | His3
